Reference: PubChem BioAssay (NCI)
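Compound exposure: 48 hours, 5 concentrations, 96-well plates. TGI denotes the concentration required for complete inhibition of growth.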

Legend:
Assay in all cases: inhibition of tumour cell growth, NCI panel, 48 h
SF-268 CNS = system: SF-268 CNS
UO-31 renal = system: UO-31 renal
MDA-N = system: MDA-N
NCI-H23 lung = system: NCI-H23 lung
RPMI-8226 leukemia = system: RPMI-8226 leukemia
OVCAR-3 ovarian = system: OVCAR-3 ovarian
SF-295 CNS = system: SF-295 CNS
SK-MEL-2 melanoma = system: SK-MEL-2 melanoma
NCI-H522 lung = system: NCI-H522 lung
HCC-2998 colon = system: HCC-2998 colon
HCT-15 colon = system: HCT-15 colon

Compound | TGI (SF-268 CNS) [µM] | TGI (UO-31 renal) [µM] | TGI (MDA-N) [µM] | TGI (NCI-H23 lung) [µM] | TGI (RPMI-8226 leukemia) [µM] | TGI (OVCAR-3 ovarian) [µM] | TGI (SF-295 CNS) [µM] | TGI (SK-MEL-2 melanoma) [µM] | TGI (NCI-H522 lung) [µM] | TGI (HCC-2998 colon) [µM] | TGI (HCT-15 colon) [µM]
O=[N+]([O-])CC(SCc1ccccc1)c1ccc2c(c1)OCO2 (stereo not given) | > 61.2 | 22.2 | 9.63 | 17.5 | 4.03 | 18.3 | 23.1 | 39.3 | 28.3 | 10.5 | 15.9
COC(=O)C1=NN2c3ccccc3C(=O)OCCC2C1 (stereo not given) | > 100 | > 100 | > 100 | > 100 | > 100 | > 100 | > 100 | > 100 | > 100 | > 100 | > 100
N#Cc1c(=O)c2cc([N+](=O)[O-])ccc2n2c1[nH]c1ccccc12 | > 100 | > 57.4 | > 77.4 | > 38.4 | > 100 | > 55.7 | > 52.2 | > 69.1 | 5.75 | > 100 | > 61.6
CCN1/C(=C/c2ccc3ccccc3[n+]2CC)C=Cc2ccccc21 | 16.5 | 8.45 | 2.04 | 17.1 | > 23.4 | 13.1 | 10.5 | 3.9 | 4.64 | 13.4 | 34.1
CCC(=O)OCc1ccc2oc(=O)c(C(=O)Oc3cncc(Cl)c3)cc2c1 | > 100 | > 100 | > 100 | > 100 | > 100 | > 100 | > 100 | > 100 | > 100 | > 100 | > 100
C[n+]1c2ccccc2c(CNC(CCC(N)=O)C(=O)O)c2ccccc21 (stereo not given) | 6.71 | 10.3 | 10.5 | 13.1 | 2.54 | 6.78 | 16 | 12 | 3.18 | 11.2 | 4.31
O=C1Oc2ccccc2C(=O)/C1=C/N1C(=O)/C(=C/c2ccc([N+](=O)[O-])cc2)SC1=S | 75.4 |  | 46.7 | 55 | 42.1 | 5.85 | 68 | 82.4 | 70.1 | 42.2 | 61.7
N=c1c2c3n(c4c(=O)n(-c5ccccc5)c(=S)n(c(=O)n1-c1ccccc1)c24)CCCCC3 | > 100 | > 100 | > 100 | > 100 | > 100 | > 100 | > 100 | > 100 | > 100 | > 100 | > 100
Oc1cc(Cl)cc2cc(Br)cnc12 | > 48.1 | > 72.1 | > 100 | > 100 | 47.9 | 7.9 | > 45.4 |  | > 69.9 | > 73.9 | > 100
C=C1CC/C=C(/C(=O)O)CC[C@H]2[C@@H]1CC2(C)C | > 100 | > 100 | > 100 | > 100 | > 100 | > 100 | > 100 | > 100 | > 100 | > 100 | > 100
O=[N+]([O-])c1ccc(Cl)cc1C1ON=C(c2ccccc2)N1C12CC3CC(CC(C3)C1)C2 (stereo not given) | > 100 | > 100 | > 100 | > 100 | > 100 | > 100 | > 100 | > 100 | > 100 | > 100 | > 100
OC(c1cccs1)c1cc2ccccc2s1 (stereo not given) | > 10 | > 10 | > 10 | > 10 | > 10 | > 10 | > 10 | > 10 | > 10 | > 10 | > 10
Oc1[nH]c2ccccc2c1N=NC1=NCCCCN1 | > 100 | > 100 | > 100 | > 100 | > 100 | > 100 | > 100 | > 100 | > 100 | > 100 | > 100
COC(=O)c1ccc2n1C1CC3CC(CC2C3)C1 | > 100 | > 100 | > 100 | > 100 | > 100 | > 100 | > 100 | > 100 | > 100 | > 100 | > 100
COC(=O)NCCc1[nH]nc2c1C(=O)C=C(OC)C2=O | 36 | 50.1 | 33.3 | 44.4 | 53.9 | 32 | 32.2 | > 100 | 44.3 | > 100 | 71.6
CCCn1cnc2c(NN=O)ncnc21 | > 100 | > 100 | > 100 | > 100 | > 100 | > 100 |  |  | > 100 | > 100 | > 100
COC(=O)C(NC(=O)CNC(=O)CSc1nnc(COc2ccc(Cl)cc2)n1-c1ccccc1)C(C)C (stereo not given) | 42.7 | 33.3 | 51.2 | 42.8 | 46.7 | 31.6 | 34.5 | 40.5 | 19.3 | 34 | 48.9
O=C1CN(c2ccc(Cl)cc2)C(=O)CN1CCN1CC(=O)N(c2ccc(Cl)cc2)CC1=O | > 100 | > 100 | > 100 | > 100 | > 100 | > 100 | > 100 |  | > 100 | > 100 | > 100
CCOC(OCC)C(CC)[Se]c1ccccc1[N+](=O)[O-] (stereo not given) | 63.9 | > 100 | > 100 | > 42.7 | 23 | 6.56 | > 22.9 | > 90.4 | 4.45 | 14.3 | 22.2
COC(=O)C1OC(O[C@H]2CC[C@]3(C)[C@H]4CC=C5[C@@H]6CC(C)(C)CC[C@]6(C(=O)OC)[C@H](O)C[C@@]5(C)[C@]4(C)CC[C@H]3C2(C)C)C(O)C(O)C1O (stereo not given in full) | 29.5 | 26.9 | 24.9 | 18.9 | 27.4 | 22.1 | 23.1 | 28.7 | 3.06 | 8.64 | 22.2
COc1cc(/C=C2\N=C(c3ccccc3)N(C3Nc4cc5c(cc4S3)NC(N3C(=O)/C(=C/c4cc(OC)c(OC)c(OC)c4)N=C3c3ccccc3)S5)C2=O)cc(OC)c1OC (stereo not given) | > 100 | > 100 | > 100 | > 100 | 95.1 | > 100 | > 100 | > 100 | > 100 | > 100 | > 100
COc1nn(Cc2ccccc2F)c2ccc([N+](=O)[O-])cc12 | > 100 | > 100 | > 100 | > 100 |  | > 100 | > 100 | > 100 | > 100 | > 100 | > 100
CC1=C/C(=N/N2C(=O)/C(=C/c3ccc(Cl)cc3)N=C2c2ccccc2)CC(C)(C)C1 | > 100 | > 100 | > 100 | > 100 | > 100 |  | > 100 | 96 | > 100 | > 100 | > 100
N[C@@H]1c2c(Br)sc(Br)c2[C@H](O)[C@@H]1O | > 100 | > 100 | > 100 | > 100 |  | > 100 | > 100 | > 100 | > 100 | > 100 | > 100
Oc1ccc(-c2nc3cc(C(F)(F)F)ccc3n2CC2CCCN3CCCCC23)cc1 (stereo not given) | 28.1 | 25.1 | 29.7 | 30.4 | 31.5 | 27 | 28.4 | 27.9 | 29 | 21.5 | 30.1
CC1=C(C2=C(C)C(=O)C(=O)c3cc(C)ccc32)c2ccc(C)cc2C(=O)C1=O |  | 0.305 | 0.347 | 0.442 | 0.705 | 0.323 | 0.373 | 0.877 | 0.631 | 0.298 | > 100
Cn1c(N2CCCC2)c(C=O)c(=O)n(C)c1=O | > 100 | > 100 | > 100 | > 100 | > 100 | > 100 | > 100 | > 100 | > 100 | > 100 | > 100
COc1ccc(-c2cc(-c3ccc(Nc4ccnc5cc(C(F)(F)F)ccc45)cc3)[nH]c(=O)c2C#N)c2ccccc12 | > 100 | > 65.9 | > 52.9 | > 100 | > 100 | > 100 | > 100 | > 100 | > 100 | > 100 | > 100
O=S(=O)(O)CCS | > 100 | > 100 | > 100 | > 100 |  | > 100 | > 100 | > 100 | > 100 | > 100 | > 100
O=c1c2cc(Br)ccc2oc2nc3n(c(=O)c12)CCCS3 | > 100 | > 100 | > 100 | > 100 | > 100 | > 100 | > 100 | > 100 | > 100 | > 100 | > 100
